Molecules are shown by their SMILES.

The results in this text go back to patent US8907106B2, “Process for the resolution of enantiomers by preferential evaporative crystallization” (Universite de Rouen, priority 2009, dated 2014).

A short description of this data set: Solubility of the racemic mixture in methanol. Type of data set: physicochemical.

Regarding `O=C([O-])C(O)c1ccccc1Cl.[Na+]` (racemic) [Sodium 2-chloromandelate], the “difference in solubility of the racemic mixture between 40° C. and 20° C.” value (40° C. vs 20° C., in absolute value, solvent of Example 2 is methanol) turned out to be 0.85%. For the same compound, the “Solubility of the racemic mixture in the methanol at reflux” value (methanol at reflux) came out at 23%.
